Results taken from patent publication US20240279294A1, “p53 VARIANT WITH IMPROVED LIQUID-LIQUID PHASE SEPARATION ABILITY AND ACTIVITY AND USE THEREOF” (Zhejiang University, priority 2023, published 2024).

Assays:
U-2OS cells = assay: cell viability (CCK8), protein delivery combined with TAS-120 or IWR-1, U-2OS; assay type: cell-based, human; settings: LLPSE-p53 (SEQ ID NO.3) protein 0.5-2 μM 24 h, then inhibitor 5-20 μM 24 h; compared with inhibitor plus buffer
Description: The above system was sterilized with a 0.22 μm filter membrane. • 4. The complete medium in the well plate was sucked and discarded, and the above protein delivery system was added, the plate was then placed in an incubator for culture for 24 h. • 5. […] Cell viability was measured by a CCK8 method and with a M5 microplate reader. • 7. Graphpad5 software was used for data processing and one-way ANOVA method was used for statistical analysis.

CDKN1A = CDKN1A luciferase reporter assay in H1299 cells; assay type: cell-based, human; settings: H1299, plasmid co-transfected with CDKN1A reporter gene plasmid, 24 h; compared with WT-p53
Description: Implementation was made as follows: • 1. Proper number of cells were seeded into a 96-well cell culture plate, plasmids and CDKN1A reporter gene plasmid were co-transformed when cell density reached 60-70%, the cells were then cultured in an incubator for 24 h. • 2. A chemiluminescence test was carried out with a luciferase reporting system test kit produced by Promega and a M5 microplate reader. • 3. Graphpad5 software was used for data processing and analysis.
Implementation was made as follows: • 1. Proper number of cells were seeded into a 96-well cell culture plate, plasmids and CDKN1A reporter gene plasmid were co-transformed when cell density reached 60-70%, the cells were then cultured in an incubator for 24 h. • 2. A chemiluminescence assay was carried out with the luciferase reporting system kit produced by Promega and a M5 microplate reader. • 3. Graphpad5 software was used for data processing and analysis.
Specific implementation steps can refer to Example 8.

Row | Molecule | killing of U-2OS cells by the inhibitor when combined with LLPSE-p53 protein (U-2OS cells) | transactivation activity on CDKN1A (CDKN1A)
1 | O=C(Nc1cccc2cccnc12)c1ccc(N2C(=O)[C@@H]3[C@H](C2=O)[C@@H]2C=C[C@H]3C2)cc1 [IWR-1] | significantly promotes TAS-120 or IWR-1 to kill U-2OS cells | –
2 | LLPSE-p53 (SEQ ID NO.7): p53 in rat with added sequence (including linker) GGASGHHHHHHHHGGAGGGGRRRRRRKK (protein) MEDSQSDMSIELPLSQETFSCLWKLLPPDDILPTTATGSPNSMEDLFLPQDVAELLEGPEEALQVSAPAAQEPGTEAPAPVAPASATPWPLSSSVPSQKTYQGNYGFHLGFLQSGTAKSVMCTYSISLNKLFCQLAKTCPVQLWVTSTPPPGTRVRAMAIYKKSQHMTEVVRRCPHHERCSDGDGLAPPQHLIRVEGNPYAEYLDDRQTFRHSVVVPYEPPEVGSDYTTIHYKYMCNSSCMGGMNRRPILTIITLEDSSGNLLGRDSFEVRVCACPGRDRRTEEENFRKKEEHCPELPPGSAKRALPTSTSSSPQQKKKPLDGEYFTLKIRGRERFEMFRELNEALELKDARAAEESGDSRAHSSYPKTKKGQSTSRHKKPMIKKVGPDSDGGASGHHHHHHHHGGAGGGGRRRRRRKK | – | significantly increases the transactivation activity of CDKN1A
